In patent US20020115724A1, “Methods and agents for inhibiting protein aging” (priority 1985, published 2002):
Where a name gives a salt, the structure may show the parent alone. Read-outs that look alike come from different tables or passages of the source.

Tests used:
calf skin collagen = assay: Calf skin collagen crosslinking by glucose: cyanogen bromide fragments on SDS-polyacrylamide gel; assay type: biochemical; details: 140 mM glucose, 200 mM aminoguanidine, 3 weeks, 35° C.; Lane B
Protocol: Collagen from samples of calf skin were extracted into acetic acid and then precipitated with 0.6 M sodium chloride. These procedures removed from the solution skin collagen that was already permanently crosslinked or denatured. Native collagen fibrils were reformed by dialysis against 0.02M phosphate buffer, and these were incubated for 3 weeks at 35° C. in the presence of 140 mM glucose and with or without 200 mM aminoguanidine. After incubation, the samples were dialyzed and the degree of crosslinking was determined by two methods. First, the amount of reacted collagen which could be solubilized by treatment in 2% sodium dodecyl sulfate at 100° C. was measured.
The reacted collagen was further examined by cleaving it into fragments using cyanogen bromide treatment in formic acid, the resulting protein fragments were separated by size by sodium dodecyl sulfate-polyacrylamide gel electrophoresis. After electrophoresis, the protein fragments were identified in the gel using silver staining.
Referring to FIG. 3B, Lane C contains collagen that was incubated with glucose alone. It is noted that a large amount of high molecular weight fragments form a continuous band at the top of the gel, indicating a large range of high molecular weight fragments. Some of this material could not enter the gel and is present in the […] stacking gel above the gradient gel. […]

rats = details: hydrochloride, cited from earlier work; for toxicity in animals: in words
[1] = tested on: diabetic New Zealand white rabbits; assay: Red blood cell deformability in long-term diabetic rabbits; assay type: in vivo, rabbit; details: for Red Blood Cell Deformability Index: diabetic rabbits, 100 mg/kg/day oral gavage
Text: New Zealand white rabbits, with induced, long-term diabetes (12.7±3.2 months) are used to study the effects of a test compound on red blood cell (RBC) deformability. If glucose-mediated crosslinking of red blood cell components results in less deformable, more rigid membrane, then therapy should prevent this change in new red cells. Red blood cells already in existence at the initiation of therapy would be unaffected; because RBCs are replaced frequently newly formed red blood cells would be exposed to the therapy. […] The test compound is administered at a rate of 100 mg/kg/day by oral gavage.
The deformability index (DI) (filtration rate of buffer/filtrate rate of suspended RBCs; hematocrit=4.0%) is used as a measure of RBC deformability. Buffer and suspended RBCs are filtered through a 3 μ micropore membrane (Nucleopore Corp., Pleasanton, Calif.) with a pressure of […] at 37° C. A reference range for RBC deformability (2.67 to 4.84, mean 4.02±0.69) and % hemoglobin glycosylation (1.7 to 3.96, mean 2.60±0.70) is obtained from a group of normal New Zealand white rabbits (n=14), matched for age, sex and weight.
The results are given in Table III, below for diabetic New Zealand white rabbits dosed with 100 mg/kg/day aminoguanidine.

[2] = tested on: streptozotocin-diabetic rat; details: streptozotocin-diabetic rat model; cited from earlier work
histamine = details: in vivo; cited from earlier work
diabetic rats [3] = details: cited from earlier work
Laminin B1 mRNA = details: diabetic rats; cited from earlier work
diabetic rats [4] = details: cited from earlier work; remark: listed apart in the source
normal and diabetic rats = assay: Aorta collagen solubility (acetic acid, CNBr, pepsin); assay type: in vivo, rat; details: 25 mg/kg daily i.p., 16 weeks
Protocol: The experiment consisted of giving both normal and diabetic rats daily intraperitoneal doses of the agent aminoguanidine hydrochloride at a dose of 25 mg per kilogram of body weight, for a period of 16 weeks. […] Diabetes was induced prior to drug therapy with a single dose of streptozotocin. Control animals, both diabetic and normal, received no drug.
Aorta samples from the same groups of animals described in Example IV above were subjected to analysis for Advanced Glycosylation Endproducts (A.G.E.) content and solubility.
Aortas were finely minced with dissecting scissors, delipidated with 5 mL of chloroform: methanol (2:1), washed 5 times with buffer, and divided into aliquots for the following assessments of cross-linking:
(B) Solubility in 0.5M acetic acid was determined after 2 hours of extraction at 25° C. and 24 hours at 4° C.
(C) Solubility after cyanogen bromide cleavage at 30° C. for 18 hours was determined.
(D) Solubility after degradation by pepsin (1.0 mg/mL) in 0.1 M acetate buffer, pH 4.1, at 37° C. for 48 hours.
After treatment for the prescribed period, soluble material was separated from insoluble material by centrifugation (50,000× g, 1 hour), and all fractions were lyophilized and hydrolyzed in 6M HCl for determination of total hydroxyproline.

bovine serum albumin = assay: Formation of fluorescent advanced glycosylation end products in albumin incubated with glucose; assay type: biochemical; details: 200 mM agent, 6 mg/mL BSA, 200 mM glucose, 37° C., two-week incubation, vs control
Protocol: To measure the ability of certain of the agents of the present invention to inhibit the production of advanced glycosylated end products in vitro, albumin and glucose were incubated together for two weeks in the presence of several test agents. Samples were taken at regular intervals for analysis. Advanced glycosylation end products were measured as appearance of fluorescent compounds, and early glycosylation products were measured by incorporation of radiolabeled glucose into albumin. Reaction conditions were as follows. […]
After the incubation periods, samples were treated as follows. After dialysis to remove all unbound glucose, the amount of protein present was measured with a standard dye-binding assay. The amount of glucose which became bound to the albumin, a measure of early glycosylation products, was determined by precipitating albumin with trichloroacetic acid and measuring the radioactivity of the bound glucose using scintillation counting.
The results of this experiment are expressed graphically in FIG. 1. For each sample, incorporation of radiolabeled glucose is indicated by the solid portion of the bar, and fluorescence is indicated in the open portion of the bar. All values are expressed as per milligram of albumin. […]

N=C(N)NN [aminoguanidine hydrochloride]
high molecular weight fragments after cyanogen bromide cleavage (gel) (calf skin collagen): no large amount of high molecular weight material
toxicity in animals (rats): low toxicity in animals
toxicity in animals (rats; listed as hydrochloride derivative): very low toxicity
LD50 (rats; subcutaneously, rats, listed as hydrochloride derivative): 2984 mg/kg
Red Blood Cell Deformability Index ([1]; 0 weeks of dosing (baseline)): 18.32 ± 6.03
Red Blood Cell Deformability Index ([1]; 4 weeks of dosing): 7.17 ± 3.12
Red Blood Cell Deformability Index ([1]; 8 weeks of dosing): 6.83 ± 2.97
Red Blood Cell Deformability Index ([1]; 12 weeks of dosing): 4.64 ± 1.58
Red Blood Cell Deformability Index ([1]; 16 weeks of dosing): 4.44 ± 1.33
Red Blood Cell Deformability Index ([1]; 20 weeks of dosing): 4.14 ± 1.06
effect on diabetes-induced increased deformability index ([1]; long-term diabetic rabbits, delayed treatment): to normal after 12 weeks
RBC deformability index ([1]; separate experiment, daily administration from the time of induction of diabetes): never became abnormal
increased glomerular basement membrane thickness [2]: prevented
levels of histamine (histamine): increase levels of histamine
kidney glomerular basement membrane protein crosslinking (diabetic rats [3]): diminishes kidney glomerular basement membrane protein crosslinking in diabetic rats
diabetes-induced increase in laminin mRNA in the kidney (Laminin B1 mRNA): prevents the diabetes-induced increase in laminin MRNA in the kidney
increased cross-linking of collagen (tendon fiber breaking time in urea bath, mechanical strength) (diabetic rats [4]): prevented
Percent collagen solubilized by 0.5 M acetic acid (normal and diabetic rats; diabetic rats): 12.6 ± 0.3%
Percent collagen solubilized by CNBr (normal and diabetic rats; diabetic rats): 10.6 ± 0.1%
Percent collagen solubilized by Pepsin (normal and diabetic rats; diabetic rats): 46.1 ± 0.4%
Percent collagen solubilized by 0.5 M acetic acid (normal and diabetic rats; normal rats): 18.7 ± 0.3%
Percent collagen solubilized by CNBr (normal and diabetic rats; normal rats): 13.6 ± 0.3%
Percent collagen solubilized by Pepsin (normal and diabetic rats; normal rats): 52.5 ± 0.2%
formation of fluorescent compounds (advanced glycosylation end products) (bovine serum albumin): dramatically reduced by as much as eightfold
